Assays:
[1] = tested on: Cowpea Aphid (Aphis craccivora); experiment: Cowpea aphid (Aphis craccivora) spray test on potted cowpea plants; assay type: in vivo; conditions: in comparison with untreated controls, population reduction recorded after 24, 72 and 120 hours, read-out: mortality against cowpea aphid
Procedure: B.1. Cowpea Aphid (Aphis craccivora)
The active compounds were formulated in 50:50 acetone:water. Potted cowpea plants colonized with 100-150 aphids of various stages were sprayed after the pest population has been recorded. Population reduction was recorded after 24, 72, and 120 hours.

[2] = tested on: Green Peach Aphid (Myzus persicae); experiment: Green peach aphid (Myzus persicae) leaf dip test on pepper plants; assay type: in vivo; conditions: foliar, 120 h, in comparison with untreated controls, determined after 5 days, read-out: mortality against green-peach aphid
Procedure: B.2. Green Peach Aphid (Myzus persicae)
Pepper plants in the 2nd leaf-pair stage (variety ‘California Wonder’) were infested with approximately 40 laboratory-reared aphids by placing infested leaf sections on top of the test plants. The leaf sections were removed after 24 hours. The leaves of the intact plants were dipped into gradient solutions of the test compound. Aphid mortality on the treated plants, relative to mortality on check plants, was determined after 5 days.

Row | Compound | mortality at 300 ppm [1] [%] | mortality at 300 ppm [2] [%]
1 | Cc1ccsc1C(Cc1ccncc1)NC1=NCCS1 (stereo not drawn) [C.I.9] | > 80 | 
2 | Brc1ccsc1C(Cc1ccncc1)NC1=NCCS1 (stereo not drawn) [C.I.10] |  | > 80
3 | c1ccc(CC(NC2=NCCS2)c2cccs2)nc1 (stereo not drawn) [C.I.12] | > 80 | 
